Key:
[1] = biological target: T1, PARP-1 (Homo sapiens, UniProt P09874); experiment: PARP-1 inhibition (Universal Colorimetric PARP Assay-Histones kit); format: biochemical; details: for IC50: IC50 determined only for drugs inhibiting 50% or more at 10 μM, 0.01 ~10 μM, 0.5U PARP, room temperature, 1 h; for PARP-1 inhibitory effect (in words): judged from Table 2
T1 construct: purchased TREVIGEN 4671-096-K

[2] = tested on: ischemic heart (허혈심장); experiment: Antiischemic (cardioprotective) effect in in vivo ischemic heart model of the rat; details: 1 mg/kg; for reduction of myocardial infarction rate / cardioprotective effect (in words): rat, versus negative control 58.6%; for myocardial infarction rate (IS/AAR, infarct size/area at risk): via femoral vein, male rat, 45 min occlusion, 90 min reperfusion, negative control 58.6%

T1 sequence (P09874 whole entry): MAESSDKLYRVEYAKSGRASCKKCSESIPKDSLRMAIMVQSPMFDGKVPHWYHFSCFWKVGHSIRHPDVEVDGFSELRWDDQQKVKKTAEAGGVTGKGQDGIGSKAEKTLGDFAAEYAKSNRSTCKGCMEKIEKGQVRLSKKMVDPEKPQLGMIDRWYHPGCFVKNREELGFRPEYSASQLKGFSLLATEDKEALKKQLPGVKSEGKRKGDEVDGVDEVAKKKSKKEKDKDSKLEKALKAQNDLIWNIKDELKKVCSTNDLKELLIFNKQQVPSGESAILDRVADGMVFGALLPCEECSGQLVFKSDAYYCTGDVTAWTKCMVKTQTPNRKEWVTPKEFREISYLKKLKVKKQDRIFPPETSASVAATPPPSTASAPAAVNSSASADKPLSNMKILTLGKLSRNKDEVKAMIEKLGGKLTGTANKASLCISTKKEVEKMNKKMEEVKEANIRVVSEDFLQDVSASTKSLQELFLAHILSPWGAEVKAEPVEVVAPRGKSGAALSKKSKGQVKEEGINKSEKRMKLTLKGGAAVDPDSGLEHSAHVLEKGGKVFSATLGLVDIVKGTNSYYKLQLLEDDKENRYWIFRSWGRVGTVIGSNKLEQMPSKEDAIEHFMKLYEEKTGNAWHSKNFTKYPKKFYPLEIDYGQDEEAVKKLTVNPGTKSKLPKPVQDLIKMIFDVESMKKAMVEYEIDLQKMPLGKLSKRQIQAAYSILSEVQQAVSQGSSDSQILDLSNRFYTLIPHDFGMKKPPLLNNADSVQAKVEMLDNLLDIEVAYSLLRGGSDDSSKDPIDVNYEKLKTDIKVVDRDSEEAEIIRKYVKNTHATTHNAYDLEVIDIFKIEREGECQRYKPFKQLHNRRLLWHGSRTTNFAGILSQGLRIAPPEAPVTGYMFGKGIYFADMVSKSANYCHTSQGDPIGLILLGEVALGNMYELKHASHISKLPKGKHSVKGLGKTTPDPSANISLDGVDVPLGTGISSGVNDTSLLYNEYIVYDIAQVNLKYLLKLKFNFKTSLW

| IC50 [1] | PARP-1 inhibitory effect (in words) [1] | Compound | reduction of myocardial infarction rate / cardioprotective effect (in words) [2] | myocardial infarction rate (IS/AAR, infarct size/area at risk) [2] |
| --- | --- | --- | --- | --- |
| 710 nM | 매우 뛰어난 PARP-1 억제효과 | NC(=O)c1cccc2[nH]c(SCC(=O)c3ccc(Br)cc3)nc12 [실시예 2, 2-[2-(4-브로모페닐)-2-옥소-에틸설파닐]-1H-벤즈이미다졸-4-카르복스아미드] | 음성대조군보다 유의성 있는 감소 | 44.1% |
| > 10000 nM | – | CN(C)c1ccc(C(=O)CSc2nc3c(C(N)=O)cccc3[nH]2)cc1 [실시예 5, 2-[2-(4-디메틸아미노페닐)-2-옥소-에틸설파닐]-1H-벤즈이미다졸-4-카르복스아미드] | – | – |
| 380 nM | 매우 뛰어난 PARP-1 억제효과 | NC(=O)c1ccc(C(=O)CSc2nc3c(C(N)=O)cccc3[nH]2)cc1 [실시예 19, 2-[2-(4-카르바모일페닐)-2-옥소-에틸설파닐]-1H-벤즈이미다졸-4-카르복스아미드] | 우수한 심장보호효과 | 36.3% |
| > 10000 nM | – | NC(=O)c1cccc2[nH]c(SCC(=O)c3ccc(N4CCCC4)cc3)nc12 [실시예 6, 2-[2-(4-피롤리딘-1-일페닐)-2-옥소-에틸설파닐]-1H-벤즈이미다졸-4-카르복스아미드] | – | – |
| 1400 nM | – | NC(=O)c1cccc2[nH]c(SCC(=O)c3ccc(N4CCCCC4)cc3)nc12 [실시예 17, 2-[2-(3-피페리딘-1-일페닐)-2-옥소-에틸설파닐]-1H-벤즈이미다졸-4-카르복스아미드] | – | – |
| 1920 nM | – | Cc1cccc(C(=O)CSc2nc3c(C(N)=O)cccc3[nH]2)c1 [실시예 15, 2-[2-(3-메틸페닐)-2-옥소-에틸설파닐]-1H-벤즈이미다졸-4-카르복스아미드] | – | – |
| 4750 nM | – | NC(=O)c1cccc2[nH]c(SCC(=O)c3ccc(Cl)cc3Cl)nc12 [실시예 9, 2-[2-(2,4-디클로로페닐)-2-옥소-에틸설파닐]-1H-벤즈이미다졸-4-카르복스아미드] | – | – |
| > 10000 nM | – | NC(=O)c1cccc2[nH]c(SCC(=O)c3ccccc3)nc12 [실시예 20, 2-[2-페닐-2-옥소-에틸설파닐]-1H-벤즈이미다졸-4-카르복스아미드] | – | – |
| 940 nM | 매우 뛰어난 PARP-1 억제효과 | NC(=O)c1cccc2[nH]c(SCC(=O)c3ccc(F)cc3)nc12 [실시예 4, 2-[2-(4-플루오로페닐)-2-옥소-에틸설파닐]-1H-벤즈이미다졸-4-카르복스아미드] | – | – |
| 1050 nM | – | NC(=O)c1cccc2[nH]c(SCC(=O)c3cc(Cl)ccc3Cl)nc12 [실시예 1, 2-[2-(2,5-디클로로페닐)-2-옥소-에틸설파닐]-1H-벤즈이미다졸-4-카르복스아미드] | – | – |
| 1200 nM | – | NC(=O)c1cccc2[nH]c(SCC(=O)c3cccc(N4CCCC4)c3)nc12 [실시예 16, 2-[2-(3-피롤리딘-1-일페닐)-2-옥소-에틸설파닐]-1H-벤즈이미다졸-4-카르복스아미드] | – | – |
| 1330 nM | – | Cc1ccc(C)c(C(=O)CSc2nc3c(C(N)=O)cccc3[nH]2)c1 [실시예 3, 2-[2-(2,5-디메틸페닐)-2-옥소-에틸설파닐]-1H-벤즈이미다졸-4-카르복스아미드] | – | – |
| 1220 nM | – | NC(=O)c1cccc2[nH]c(SCC(=O)c3ccccc3F)nc12 [실시예 10, 2-[2-(2-플루오로페닐)-2-옥소-에틸설파닐]-1H-벤즈이미다졸-4-카르복스아미드] | – | – |
| 1940 nM | – | COc1ccc(C(=O)CSc2nc3c(C(N)=O)cccc3[nH]2)cc1 [실시예 14, 2-[2-(4-메톡시페닐)-2-옥소-에틸설파닐]-1H-벤즈이미다졸-4-카르복스아미드] | – | – |
| 430 nM | 매우 뛰어난 PARP-1 억제효과 | NC(=O)c1cccc(C(=O)CSc2nc3c(C(N)=O)cccc3[nH]2)c1 [실시예 18, 2-[2-(3-카르바모일페닐)-2-옥소-에틸설파닐]-1H-벤즈이미다졸-4-카르복스아미드] | 우수한 심장보호효과 | 37.5% |
| 2260 nM | – | COc1cccc(C(=O)CSc2nc3c(C(N)=O)cccc3[nH]2)c1 [실시예 7, 2-[2-(3-메톡시페닐)-2-옥소-에틸설파닐]-1H-벤즈이미다졸-4-카르복스아미드] | – | – |
| 960 nM | 매우 뛰어난 PARP-1 억제효과 | NC(=O)c1cccc2[nH]c(SCC(=O)c3cccc(F)c3)nc12 [실시예 8, 2-[2-(3-플루오로페닐)-2-옥소-에틸설파닐]-1H-벤즈이미다졸-4-카르복스아미드] | – | – |
| 750 nM | 매우 뛰어난 PARP-1 억제효과 | NC(=O)c1cccc2[nH]c(SCC(=O)c3ccc(C=O)cc3)nc12 [실시예 21, 2-[2-(4-포르밀페닐)-2-옥소-에틸설파닐]-1H-벤즈이미다졸-4-카르복스아미드] | – | – |
| 1120 nM | – | COc1ccccc1C(=O)CSc1nc2c(C(N)=O)cccc2[nH]1 [실시예 13, 2-[2-(2-메톡시페닐)-2-옥소-에틸설파닐]-1H-벤즈이미다졸-4-카르복스아미드] | – | – |
| 2230 nM | – | NC(=O)c1cccc2[nH]c(SCC(=O)c3cccc(Br)c3)nc12 [실시예 11, 2-[2-(3-브로모페닐)-2-옥소-에틸설파닐]-1H-벤즈이미다졸-4-카르복스아미드] | – | – |
| 960 nM | 매우 뛰어난 PARP-1 억제효과 | Cc1ccccc1C(=O)CSc1nc2c(C(N)=O)cccc2[nH]1 [실시예 12, 2-[2-(2-메틸페닐)-2-옥소-에틸설파닐]-1H-벤즈이미다졸-4-카르복스아미드] | – | – |
